Laboratory results as given in US11866405B2, “Substituted indazoles as IRAK4 inhibitors” (AstraZeneca AB, priority 2020, dated 2024).
pIC50: −log10 of the molar value.

What was measured:
[1] = biological target: IRAK4 auto-phosphorylation (Homo sapiens (Human), UniProt Q9NWZ3); assay: IRAK4 phosphorylation cell assay in IL-1β-stimulated Karpas-299 cells; assay type: cell-based; conditions: IL-1β 22.7 ng/mL, pIRAK4 (Thr345/Ser346), geometric mean of at least 2 experiments
Procedure: IRAK4 Phosphorylation Cell Assay
The activation of IRAK4 by TLR or IL-1R ligands leads to IRAK4 auto-phosphorylation, which can be prevented by IRAK4 kinase inhibitors. The effect of IRAK4 inhibitor compounds on IRAK4 auto-phosphorylation was assessed in IL-1β-stimulated Karpas-299 cells as a measurement of cellular potency. Karpas-299 cells were cultured in RPMI 1640 (Gibco 61870-010) containing 10% FBS (Gibco #10270). Cells were plated at 2×10^4 cells per well in poly-D-lysine coated 384 well plates (Corning #356663) to which compounds had been added at various concentrations (10 point half log dose response with a final top concentration of 30 μM) using an Echo 655 (Labcyte Inc). Cells were centrifuged (250 g, 4 mins), incubated at 37° C. for 1 h, then stimulated with 22.7 ng/mL recombinant IL-1β (R&D Systems, #201-LB-025) at 37° C. for 10 mins, followed by fixation in 4% paraformaldehyde for 10 mins and permeabilization in ice-cold 70% MeOH for 30 mins. Cells were washed twice with phosphate-buffered saline (PBS) on a BlueWasher (BlueCatBio) then blocked with PBS containing 10% FBS for 20 mins. Blocking solution was removed with a BlueWasher and cells were stained with anti-pIRAK4 (Thr345/Ser346) (CST, #11927, 1:400) in blocking buffer with 0.05% Tween-20 for 1 h, then washed twice with PBS containing 0.05% Tween-20 on a BlueWasher, followed by staining with a Alexa 647-conjugated secondary anti-rabbit IgG antibody (CST, #4414, 1:2,000) and Hoechst 33342 (Sigma, 1:2,000) in blocking buffer with 0.05% Tween-20 for 30 mins. Finally, the cells were washed twice with PBS containing 0.05% Tween-20 and imaged on an ImageXpress Micro (Molecular Devices) with a 10× air objective using the appropriate filters. Images were analysed in Columbus (PerkinElmer) and the fluorescence intensity per cell from the secondary antibody was quantified. The quantified data were analysed in Genedata Screener 15 (Genedata AG). […] IC50 values are the geometric mean of at least 2 experiments.

[2] = biological target: human recombinant IRAK4 protein (Homo sapiens (Human), UniProt Q9NWZ3); assay: IRAK4 enzyme assay (mass spectrometry readout); assay type: biochemical; conditions: 3 mM ATP, 0.2 nM enzyme; geometric mean of at least n=2, * single experiment
Sequence of human recombinant IRAK4 protein (Q9NWZ3 whole entry): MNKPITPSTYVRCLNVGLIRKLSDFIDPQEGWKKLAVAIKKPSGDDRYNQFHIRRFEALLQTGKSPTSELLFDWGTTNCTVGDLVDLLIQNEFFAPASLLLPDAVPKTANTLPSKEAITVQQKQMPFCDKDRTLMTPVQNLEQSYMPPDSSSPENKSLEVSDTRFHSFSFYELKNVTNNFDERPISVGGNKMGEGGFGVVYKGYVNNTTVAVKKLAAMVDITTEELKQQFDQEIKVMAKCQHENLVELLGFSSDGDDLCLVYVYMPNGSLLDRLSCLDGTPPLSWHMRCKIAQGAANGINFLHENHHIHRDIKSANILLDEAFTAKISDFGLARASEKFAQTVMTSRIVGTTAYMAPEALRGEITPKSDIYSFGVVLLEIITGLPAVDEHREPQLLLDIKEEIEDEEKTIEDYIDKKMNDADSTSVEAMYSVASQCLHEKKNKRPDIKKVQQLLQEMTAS
Procedure: Potency of IRAK4 Inhibitor Compounds in IRAK4 Enzyme Assay
The inhibitory activity of compounds against IRAK4 were determined in an enzymatic assay using mass spectrometry readout. Ten point half-log compound concentration response curves, with a top concentration of 1 μM or 10 μM, were generated from 10 mM stocks of compound solubilized in DMSO using an Echo 655 (Labcyte Inc) and added to 384 well assay plates (Greiner #781280). To the assay plates, 10 μL of human recombinant IRAK4 protein (Life Technologies #PV4002) diluted to a final concentration of 0.2 nM in assay buffer (50 mM Tris-HCl pH 7.4, 10 mM MgCl, 5 mM glutathione, 0.01% BSA, 3 mM ATP) was added. The enzyme was incubated with the compounds at room temperature for 15 minutes before a peptide substrate ([…], Innovagen custom synthesis, 10 mM in DMSO) was added to each well to a final concentration of 10 μM using an Echo 655 (Labcyte Inc). After two hours at room temperature, the reaction was stopped with 90 μL of 0.4% formic acid (Merck #33015). The unphosphorylated and phosphorylated peptide were measured by LC-MS/MS on a Waters TQ-S mass spectrometer. Peaks were integrated using the TargetLynx software and the ratios between phosphorylated and unphosphorylated peptides were calculated. Curves were fitted and compound potencies determined in Genedata Screener 15 (Genedata AG). Data presented are the geometric mean of at least n=2, or as denoted by an * are obtained from a single experiment.

Sequence of IRAK4 auto-phosphorylation (Q9NWZ3 whole entry): as above

SMILES | pIC50 [1] | pIC50 [2]
CC1(O)CC2(CCC(n3cc4cc(C(=O)Nc5cnn6cccnc56)c(OC5CC5)cc4n3)CC2)C1 (single isomer, unassigned) [Example 15, 6-Cyclopropoxy-2-(2-hydroxy-2-methylspiro[3.5]nonan-7-yl)-N-(pyrazolo[1,5-a]pyrimidin-3-yl)-2H-indazole-5-carboxamide] | 7.04 | 9.30
CC(=O)N1CC2(CC[C@@H](n3cc4cc(C(=O)Nc5cnn6cccnc56)c(OC5CC5)cc4n3)[C@H](C)C2)C1 (single isomer, unassigned) [Example 28] | 6.79 | 8.52
COc1cc2nn([C@H]3CCC(N(C)C(C)=O)C[C@@H]3C)cc2cc1C(=O)Nc1cnc2cccnn12 (single isomer, unassigned) [Example 35, N-(imidazo[1,2-b]pyridazin-3-yl)-6-methoxy-2-((1S,2S,4R*)-2-methyl-4-(N-methylacetamido)cyclohexyl)-2H-indazole-5-carboxamide] | 6.94 | 8.14
COc1cc2nn([C@H]3CC[C@H](O)C[C@@H]3C)cc2cc1C(=O)Nc1cnn2cccnc12 (single isomer, unassigned) [Example 39] | 6.80 | 8.00
O=C(Nc1cnn2cccnc12)c1cc2cn(C3CCC4(CC3)CC(O)C4)nc2cc1OC1CC1 (single isomer, unassigned) [Example 46, 6-Cyclopropoxy-2-(2-hydroxyspiro[3.5]nonan-7-yl)-N-(pyrazolo[1,5-a]pyrimidin-3-yl)-2H-indazole-5-carboxamide] | 7.25 | 9.22
O=C(Nc1cnn2cccnc12)c1cc2cn(C3CCC4(CC3)CC(O)C4)nc2cc1OC1CC1 (single isomer, unassigned) [Example 47, 6-Cyclopropoxy-2-(2-hydroxyspiro[3.5]nonan-7-yl)-N-(pyrazolo[1,5-a]pyrimidin-3-yl)-2H-indazole-5-carboxamide] | 7.19 | 9.30
COc1cc2nn(C3CCC(C)(O)CC3)cc2cc1C(=O)Nc1cnc2cccnn12 (single isomer, unassigned) [Example 48, 2-(4-Hydroxy-4-methylcyclohexyl)-N-(imidazo[1,2-b]pyridazin-3-yl)-6-methoxy-2H-indazole-5-carboxamide] | 7.77 | 9.15
COc1cc2nn(C3CCC(C)(O)CC3)cc2cc1C(=O)Nc1cnc2cccnn12 (single isomer, unassigned) [Example 49, 2-(4-Hydroxy-4-methylcyclohexyl)-N-(imidazo[1,2-b]pyridazin-3-yl)-6-methoxy-2H-indazole-5-carboxamide] | 7.34 | 8.21
COc1cc2nn([C@H]3CCC[C@](C)(O)C3)cc2cc1C(=O)Nc1cnn2cccnc12 (single isomer, unassigned) [Example 52] | 7.02 | 8.26
COc1cc2nn([C@H]3CCC[C@](C)(O)C3)cc2cc1C(=O)Nc1cnn2cccnc12 (single isomer, unassigned) [Example 53] | 7.31 | 8.46
COc1cc2nn([C@@H]3CCC(N(C)C(C)=O)C[C@H]3C)cc2cc1C(=O)Nc1cnn2cccnc12 (single isomer, unassigned) [Example 61] | 6.62 | 7.62
COc1cc2nn([C@H]3CCC(N(C)C(C)=O)C[C@@H]3C)cc2cc1C(=O)Nc1cnn2cccnc12 (single isomer, unassigned) [Example 63, 6-methoxy-2-((1S,2S,4R*)-2-methyl-4-(N-methylacetamido)cyclohexyl)-N-(pyrazolo[1,5-a]pyrimidin-3-yl)-2H-indazole-5-carboxamide] | 6.47 | 7.33
COc1cc2nn([C@@H]3CC[C@H](O)[C@H](C)C3)cc2cc1C(=O)Nc1cnc2cccnn12 (single isomer, unassigned) [Example 77] | 7.85 | 9.15
COc1cc2nn([C@H]3CC[C@H](O)[C@H](C)C3)cc2cc1C(=O)Nc1cnc2cccnn12 (single isomer, unassigned) [Example 78] | 7.28 | 8.60
COc1cc2nn([C@H]3CC[C@H](O)[C@H](C)C3)cc2cc1C(=O)Nc1cnc2cccnn12 (single isomer, unassigned) [Example 79] | 7.68 | 9.00
COc1cc2nn([C@H]3CC[C@H](O)[C@@H](C)C3)cc2cc1C(=O)Nc1cnc2cccnn12 (single isomer, unassigned) [Example 81] | 7.09 | 8.29

More lines, in order of rising pIC50 [1], values ahead:

pIC50 [1] | pIC50 [2] | SMILES
6.73 | 7.80 | COc1cc2nn([C@H]3CCC(N(C)C(C)=O)C[C@@H]3C)cc2cc1C(=O)Nc1cnn2cccnc12 (single isomer, unassigned) [Example 62, 6-methoxy-2-((1S,2S,4R*)-2-methyl-4-(N-methylacetamido)cyclohexyl)-N-(pyrazolo[1,5-a]pyrimidin-3-yl)-2H-indazole-5-carboxamide]
7.08 | 8.47 | COc1cc2nn([C@H]3CCC[C@@](C)(O)C3)cc2cc1C(=O)Nc1cnn2cccnc12 (single isomer, unassigned) [Example 50]
7.10 | 8.57 | COc1cc2nn(C3CCC4(CC3)COC(=O)N4C)cc2cc1C(=O)Nc1cnc2cccnn12 (single isomer, unassigned) [Example 74, N-(Imidazo[1,2-b]pyridazin-3-yl)-6-methoxy-2-(1-methyl-2-oxo-3-oxa-1-azaspiro[4.5]decan-8-yl)-2H-indazole-5-carboxamide]
7.11 | 9.22 | CC1(O)CC2(CCC(n3cc4cc(C(=O)Nc5cnn6cccnc56)c(OC5CC5)cc4n3)CC2)C1 (single isomer, unassigned) [Example 16, 6-Cyclopropoxy-2-(2-hydroxy-2-methylspiro[3.5]nonan-7-yl)-N-(pyrazolo[1,5-a]pyrimidin-3-yl)-2H-indazole-5-carboxamide]
7.25 | 8.42 | COc1cc2nn([C@@H]3CCC(N(C)C(C)=O)C[C@H]3C)cc2cc1C(=O)Nc1cnc2cccnn12 (single isomer, unassigned) [Example 36, N-(imidazo[1,2-b]pyridazin-3-yl)-6-methoxy-2-(1R,2R,4R*)-2-methyl-4-(N-methylacetamido)cyclohexyl)-2H-indazole-5-carboxamide]
7.34 | 8.55 | COc1cc2nn([C@H]3CCC[C@@](C)(O)C3)cc2cc1C(=O)Nc1cnn2cccnc12 (single isomer, unassigned) [Example 51]
7.38 | 9.10 | C[C@H]1C[C@@H](O)CC[C@@H]1n1cc2cc(C(=O)Nc3cnn4cccnc34)c(OC3CC3)cc2n1 (single isomer, unassigned) [Example 44]
7.57 | 8.62 | COc1cc2nn([C@@H]3CC[C@H](O)[C@@H](C)C3)cc2cc1C(=O)Nc1cnc2cccnn12 (single isomer, unassigned) [Example 82]
7.68 | 9.10 | COc1cc2nn([C@@H]3CCC(N(C)C(C)=O)C[C@H]3C)cc2cc1C(=O)Nc1cnn2cccnc12 (single isomer, unassigned) [Example 60]
7.92 | 9.52 | COc1cc2nn(C3CCC4(CC3)COC(=O)N4C)cc2cc1C(=O)Nc1cnc2cccnn12 (single isomer, unassigned) [Example 75, N-(Imidazo[1,2-b]pyridazin-3-yl)-6-methoxy-2-(1-methyl-2-oxo-3-oxa-1-azaspiro[4.5]decan-8-yl)-2H-indazole-5-carboxamide]
